From patent US6734292B1, “Pseudoerythromycin derivatives” (The Kitasato Institute, priority 2002, dated 2004)

System: THP-1 cells
Experiment: enhancing effect for differentiation-induction from human monocyte to macrophage (THP-1/Mφ system, MTT readout)
Assay type: cell-based
Design: key: ++: enhanced 100% or more; +: enhanced 50-100%; ±: enhanced 25-50%; −: no activity; /: expressed cytoxicity; NT: not tested or under assessment
Conditions: in comparison with enhancing action for differentiation-induction of EM 100 μM
Procedure: In order to confirm enhancing effect for differentiation-induction of the compounds of the present invention, the enhancing effect for differentiation-induction from human monocyte to macrophage was assayed. Method is performed as follows. THP-1 cells were collected from cultured liquid by centrifugation, adjusted the concentration to 2×10^5 cells/ml using medium (RPMI 1640) and distributed into the 48-well plate at 500 μl/well. PMA solution 10 μl and sample solution 5 μl were added in each well, stirred with mild shaking and incubated at 37° C. for 72-96 hours under 5% CO2. Further MTT 0.5 mg/ml solution was added at 300 μl/well, and incubated at 37° C. for 3 hours under 5% CO2. Supernatant solution was suctioned using the injection tube, added DMSO 500 μl using automatic continuous injector to dissolve formazan completely and transferred each 100 μl to the 96-well plate. The optical absorption was measured using the plate-reader.

CC[C@H]1OC(=O)[C@H](C)[C@@H](O[C@H]2C[C@@](C)(OC)[C@@H](O)[C@H](C)O2)[C@H](C)[C@@H](O[C@@H]2O[C@H](C)C[C@H](N(C)C)[C@H]2O)[C@](C)(OC)C[C@@H](C)C(=O)[C@H](C)[C@@H](O)[C@]1(C)O [CAM, reference compound] was tested, and the “activities in THP-1/Mφ system, Treated conc. 3 μM” value (from here on “activities … Treated conc. 3 μM”) was “−”, the “activities in THP-1/Mφ system, Treated conc. 10 μM” value (from here on “activities … Treated conc. 10 μM”) was “+ (enhanced 50-100%)” and the “activities in THP-1/Mφ system, Treated conc. 30 μM” value (shortened to “activities … Treated conc. 30 μM”) was “−”.

For CCC(O)C(C)(O)C1OC(=O)C(C)C(OC2CC(C)(OC)C(O)C(C)O2)C(C)C(OC2OC(C)CC(N)C2O)C2(C)CC(C)=C(O2)C1C (stereo not drawn) [EM721, bis-de(3′-N-methyl)-8,9-anhydro-pseudo erythromycin A 6,9-hemiketal], the “activities … Treated conc. 3 μM” value was “−” and the “activities … Treated conc. 10 μM” value was “+ (enhanced 50-100%)”.

CCNC1CC(C)OC(OC2C(C)C(OC3CC(C)(OC)C(O)C(C)O3)C(C)C(=O)OC(C(C)(O)C(O)CC)C(C)C3=C(C)CC2(C)O3)C1O (stereo not drawn) [EM722, bis-de(3′-N-methyl)-3′-N-ethyl-8,9-anhydro-pseudoerythromycin A 6,9-hemiketal] was tested, and the “activities in THP-1/Mφ system, Treated conc. 0.3 μM” value (from here on “activities … Treated conc. 0.3 μM”) was “−”, the “activities in THP-1/Mφ system, Treated conc. 1 μM” value (“activities … Treated conc. 1 μM” below) was “+ (enhanced 50-100%)” and the “activities … Treated conc. 3 μM” value was “+ (enhanced 50-100%)”. For the same molecule, the “activities … Treated conc. 10 μM” value was “++ (enhanced 100% or more)”.

For CC[C@@H](O)[C@@](C)(O)[C@@H]1OC(=O)[C@H](C)[C@@H](O[C@H]2C[C@@](C)(OC)[C@@H](O)[C@H](C)O2)[C@H](C)[C@@H](O[C@@H]2O[C@H](C)C[C@H](N(CC)CC)[C@H]2O)[C@@]2(C)CC(C)=C(O2)[C@@H]1C [EM723, bis-de(3′-N-methyl)-3′,3′-N,N-diethyl-8,9-anhydro-pseudoerythromycin A 6,9-hemiketal], the “activities … Treated conc. 0.3 μM” value was “−”, the “activities … Treated conc. 1 μM” value was “+ (enhanced 50-100%)” and the “activities … Treated conc. 3 μM” value was “+ (enhanced 50-100%)”.

In the case of C=CCNC1CC(C)OC(OC2C(C)C(OC3CC(C)(OC)C(O)C(C)O3)C(C)C(=O)OC(C(C)(O)C(O)CC)C(C)C3=C(C)CC2(C)O3)C1O (stereo not drawn) [EM724, bis-de(3′-N-methyl)-3′-N-allyl-8,9-anhydro-pseudoerythromycin A 6,9-hemiketal], the “activities … Treated conc. 0.3 μM” value was “−”, the “activities … Treated conc. 1 μM” value was “+ (enhanced 50-100%)” and the “activities … Treated conc. 3 μM” value was “+ (enhanced 50-100%)”. For the same molecule, the “activities … Treated conc. 10 μM” value was “++ (enhanced 100% or more)”.

C=CCN(CC=C)C1CC(C)OC(OC2C(C)C(OC3CC(C)(OC)C(O)C(C)O3)C(C)C(=O)OC(C(C)(O)C(O)CC)C(C)C3=C(C)CC2(C)O3)C1O (stereo not drawn) [EM725, bis-de(3′-N-methyl)-3′,3′-N,N-diallyl-8,9-anhydro-pseudoerythromycin A 6,9-hemiketal] was tested, and the “activities … Treated conc. 1 μM” value was “−”, the “activities … Treated conc. 3 μM” value was “± (enhanced 25-50%)” and the “activities … Treated conc. 10 μM” value was “+ (enhanced 50-100%)”.

For CCC(O)C(C)(O)C1OC(=O)C(C)C(OC2CC(C)(OC)C(O)C(C)O2)C(C)C(OC2OC(C)CC(NC(C)=O)C2O)C2(C)CC(C)=C(O2)C1C (stereo not drawn) [EM726, bis-de(3′-N-methyl)-3′-N-acetyl-8,9-anhydro-pseudoerythromycin A 6,9-hemiketal], the “activities … Treated conc. 0.3 μM” value was “−”, the “activities … Treated conc. 1 μM” value was “−” and the “activities … Treated conc. 3 μM” value was “−”. For the same molecule, the “activities … Treated conc. 10 μM” value was “−” and the “activities … Treated conc. 30 μM” value was “−”.

With CCC(O)C(C)(O)C1OC(=O)C(C)C(OC2CC(C)(OC)C(O)C(C)O2)C(C)C(OC2OC(C)CC(N(C)S(C)(=O)=O)C2O)C2(C)CC(C)=C(O2)C1C (stereo not drawn) [EM727, de(3′-N-methyl)-3′-N-sulfonyl-8,9-anhydro-pseudoerythromycin A 6,9-hemiketal] the “activities … Treated conc. 0.3 μM” value was “−”, the “activities … Treated conc. 1 μM” value was “+ (enhanced 50-100%)” and the “activities … Treated conc. 3 μM” value was “+ (enhanced 50-100%)”. For the same molecule, the “activities … Treated conc. 10 μM” value was “+ (enhanced 50-100%)”.

In the case of C#CCNC1CC(C)OC(OC2C(C)C(OC3CC(C)(OC)C(O)C(C)O3)C(C)C(=O)OC(C(C)(O)C(O)CC)C(C)C3=C(C)CC2(C)O3)C1O (stereo not drawn) [EM728, bis-de(3′-N-methyl)-3′-N-propargyl-8,9-anhydro-pseudoerythromycin A 6,9-hemiketal], the “activities … Treated conc. 0.3 μM” value was “−”, the “activities … Treated conc. 1 μM” value was “+ (enhanced 50-100%)” and the “activities … Treated conc. 3 μM” value was “+ (enhanced 50-100%)”. For the same molecule, the “activities … Treated conc. 10 μM” value was “+ (enhanced 50-100%)” and the “activities … Treated conc. 30 μM” value was “+ (enhanced 50-100%)”.

In the case of C#CCN(CC#C)C1CC(C)OC(OC2C(C)C(OC3CC(C)(OC)C(O)C(C)O3)C(C)C(=O)OC(C(C)(O)C(O)CC)C(C)C3=C(C)CC2(C)O3)C1O (stereo not drawn) [EM729, bis-de(3′-N-methyl)-3′,3′-N,N-di-propargyl-8,9-anhydro-pseudoerythromycin A 6,9-hemiketal], the “activities … Treated conc. 0.3 μM” value was “−”, the “activities … Treated conc. 1 μM” value was “± (enhanced 25-50%)” and the “activities … Treated conc. 3 μM” value was “± (enhanced 25-50%)”. The “activities … Treated conc. 10 μM” value was “± (enhanced 25-50%)”.

For CCCNC1CC(C)OC(OC2C(C)C(OC3CC(C)(OC)C(O)C(C)O3)C(C)C(=O)OC(C(C)(O)C(O)CC)C(C)C3=C(C)CC2(C)O3)C1O (stereo not drawn) [EM730, bis-de(3′-N-methyl)-3′-N-propyl-8,9-anhydro-pseudoerythromycin A 6,9-hemiketal], the “activities … Treated conc. 0.3 μM” value was “+ (enhanced 50-100%)”, the “activities … Treated conc. 1 μM” value was “+ (enhanced 50-100%)” and the “activities … Treated conc. 3 μM” value was “+ (enhanced 50-100%)”.

CCCN(CCC)C1CC(C)OC(OC2C(C)C(OC3CC(C)(OC)C(O)C(C)O3)C(C)C(=O)OC(C(C)(O)C(O)CC)C(C)C3=C(C)CC2(C)O3)C1O (stereo not drawn) [EM731, bis-de(3′-N-methyl)-3′,3′-N,N-di-propyl-8,9anhydro-pseudoerythromycin A 6,9-hemiketal] was tested, and the “activities … Treated conc. 0.3 μM” value was “−”, the “activities … Treated conc. 1 μM” value was “−” and the “activities … Treated conc. 3 μM” value was “+ (enhanced 50-100%)”.

In the case of CCC(O)C(C)(O)C1OC(=O)C(C)C(OC2CC(C)(OC)C(O)C(C)O2)C(C)C(OC2OC(C)CC(NCc3ccccc3)C2O)C2(C)CC(C)=C(O2)C1C (stereo not drawn) [EM732, bis-de(3′-N-methyl)-3′-N-benzyl-8,9-anhydro-pseudoerythromycin A 6,9-hemiketal], the “activities … Treated conc. 0.3 μM” value was “+ (enhanced 50-100%)”, the “activities … Treated conc. 1 μM” value was “+ (enhanced 50-100%)” and the “activities … Treated conc. 3 μM” value was “+ (enhanced 50-100%)”. The “activities … Treated conc. 10 μM” value was “+ (enhanced 50-100%)”.

With CCC(O)C(C)(O)C1OC(=O)C(C)C(OC2CC(C)(OC)C(O)C(C)O2)C(C)C(OC2OC(C)CC(N(Cc3ccccc3)Cc3ccccc3)C2O)C2(C)CC(C)=C(O2)C1C (stereo not drawn) [EM733, bis-de(3′-N-methyl)-3′,3′-N,N-di-benzyl-8,9-anhydro-pseudoerythromycin A 6,9-hemiketal] the “activities … Treated conc. 0.3 μM” value was “−”, the “activities … Treated conc. 1 μM” value was “± (enhanced 25-50%)” and the “activities … Treated conc. 3 μM” value was “± (enhanced 25-50%)”.

In the case of CCC(O)C(C)(O)C1OC(=O)C(C)C(OC2CC(C)(OC)C(O)C(C)O2)C(C)C(OC2OC(C)CC(N3CCCC3)C2O)C2(C)CC(C)=C(O2)C1C (stereo not drawn) [EM735, de(3′-dimethylamino)-3′-pyrrolidino-8,9-anhydro-pseudoerythromycin A 6,9-hemiketal], the “activities … Treated conc. 0.3 μM” value was “−”, the “activities … Treated conc. 1 μM” value was “± (enhanced 25-50%)” and the “activities … Treated conc. 3 μM” value was “+ (enhanced 50-100%)”. The “activities … Treated conc. 10 μM” value was “++ (enhanced 100% or more)”.

In the case of CC[C@@H](O)[C@@](C)(O)[C@@H]1OC(=O)[C@H](C)[C@@H](O[C@H]2C[C@@](C)(OC)[C@@H](O)[C@H](C)O2)[C@H](C)[C@@H](O[C@@H]2O[C@H](C)C[C@H](NC(C)C)[C@H]2O)[C@@]2(C)CC(C)=C(O2)[C@@H]1C [EM736, bis-de(3′-N-methyl)-3′-N-(2-propyl)-8,9-anhydro-pseudoerythromycin A 6,9-hemiketal], the “activities … Treated conc. 0.3 μM” value was “−”, the “activities … Treated conc. 1 μM” value was “± (enhanced 25-50%)” and the “activities … Treated conc. 3 μM” value was “+ (enhanced 50-100%)”. The “activities … Treated conc. 10 μM” value was “++ (enhanced 100% or more)”.

In the case of CCC(O)C(C)(O)C1OC(=O)C(C)C(O)C(C)C(OC2OC(C)CC(N(C)C)C2O)C2(C)CC(C)=C(O2)C1C (stereo not drawn) [EM737, de(3-O-cladinosyl)-8,9-anhydro-pseudo erythromycin A 6,9-hemiketal], the “activities … Treated conc. 3 μM” value was “−” and the “activities … Treated conc. 10 μM” value was “+ (enhanced 50-100%)”.
